Measurements from the Deep4Chem optical property database.
Values joined by “and” are separate entries in the source; they are usually repeats but may differ in a detail not shown here. Identical values can stand only once. Blank lines part the entries; values can stand above or below the compound they belong to.

Experiment: solvent given as SMILES

absorption maximum (in C1CCCCC1): 325 nm
absorption maximum (in CC#N): 345 nm
absorption maximum (in CO): 355 nm
absorption maximum (in CS(C)=O): 350 nm
absorption maximum (in c1ccccc1): 340 nm
Structure (SMILES): CN(C)c1ccc(C(=O)c2ccccc2)cc1

absorption maximum (in CC#N): 350.79 nm
Structure (SMILES): C[n+]1ccn(CCCCc2ccc3c(c2)c2ccccc2n3-c2cc(C#N)c(C#N)cc2F)c1

absorption maximum (in CCO): 439 nm
Structure (SMILES): OCc1ccc2c3cccc4cccc(c5cccc1c52)c43

absorption maximum (in ClCCl): 396 nm
Structure (SMILES): O=C1c2cc3ccccc3cc2C2=Nc3cccc[n+]3[B-](F)(F)N12

absorption maximum (in ClCCl): 481 nm
Structure (SMILES): COc1ccc(-c2c3ccccc3c(C#Cc3ccccc3)c3cc4cc(C)sc4cc23)cc1

absorption maximum (in ClCCl): 303 nm
Structure (SMILES): Cc1cc2ccccc2c2c1c1ccccc1n2-c1ccccc1

absorption maximum (in ClC(Cl)Cl): 526 nm
Structure (SMILES): CCCCCCCCCCCC#CC#CCCCCCCCCCN1C(=O)c2ccc3c4ccc5c6c(ccc(c7ccc(c2c37)C1=O)c64)C(=O)N(CCCCCCCCCC#CC#CCCCCCCCCCCCC)C5=O

absorption maximum (in CN(C)C=O): 347 nm
Structure (SMILES): C(=C\c1ccc(-c2nnc(-c3ccccc3)o2)cc1)/c1ccc(-c2nnc(-c3ccccc3)o2)cc1

absorption maximum (in ClC(Cl)Cl): 630 nm
Structure (SMILES): Ic1ccc(C2=C3C=CC4=[N+]3[B-]3(Oc5ccccc54)Oc4ccccc4-c4ccc2n43)cc1 (stereo unspecified)

absorption maximum (in CC#N): 322 nm
Structure (SMILES): C[C@@]12SC(Cl)=CC1=c1nc(-c3ccccc3)[nH]c1=C1C=C(Cl)S[C@]12C

absorption maximum (in ClCCl): 347 nm
Structure (SMILES): CCOC(=O)c1c(-c2cc3cc4c(cc3oc2=O)OC(C)(C)CC4)nn(-c2cccc(C)c2)c1C(=O)OCC

absorption maximum (in C1CCCCC1): 385 nm
absorption maximum (in C1CCOC1): 402 nm
absorption maximum (in C1COCCO1): 393 nm
absorption maximum (in CC#N): 392 nm
absorption maximum (in CC(C)(C)O): 407 nm
absorption maximum (in CC(C)O): 404 nm
absorption maximum (in CCCCCC): 383 nm
absorption maximum (in CCCCO): 405 nm
absorption maximum (in CCO): 402 nm
absorption maximum (in CCOC(C)=O): 397 nm
absorption maximum (in CN(C)C=O): 407 nm
absorption maximum (in CO): 399 nm
absorption maximum (in CS(C)=O): 410 nm
absorption maximum (in ClC(Cl)Cl): 398 nm
absorption maximum (in ClCCl): 392 nm
absorption maximum (in O): 395 nm
absorption maximum (in OCCO): 401 nm
Structure (SMILES): Cc1cc(O)c(C(C)C)cc1/N=C/c1ccc([N+](=O)[O-])cc1

absorption maximum (in C1CCCCC1): 320 nm
absorption maximum (in CO): 320 nm
Structure (SMILES): C(=C\c1nc2ccccc2o1)/c1ccccc1

absorption maximum (in ClCCl): 306 nm
Structure (SMILES): CCCCCCCCCCCCCCCCn1c(-c2cc(-c3nc4ccc(C)cc4n3CCCCCCCCCCCCCCCC)cc(-c3nc4ccc(C)cc4n3CCCCCCCCCCCCCCCC)c2)nc2ccc(C)cc21

absorption maximum (in C1CCCCC1): 459 nm
Structure (SMILES): C[Si](C)(C)C#Cc1ccc2c3cccc4cccc(c5cccc1c52)c43

absorption maximum (in ClC(Cl)Cl): 799 nm
Structure (SMILES): CN(C)c1ccc(C2=[N+]3C(=Nc4c(-c5ccccc5)cc(-c5ccc(N(C)C)cc5)n4[B-]3(F)F)C(c3ccccc3)=C2)cc1

absorption maximum (in C1CCOC1): 428 nm
Structure (SMILES): COc1cc2c(cc1-c1ccc(N(c3ccccc3)c3ccccc3)cc1)Cc1c3c(c4c(c1-2)-c1cc(OC)c(-c2ccc(N(c5ccccc5)c5ccccc5)cc2)cc1C4)C(=O)N(CCC(C)C)C3=O

absorption maximum (in ClCCl): 654 nm
Structure (SMILES): Cc1ccc(C#Cc2c3cc4ccccc4cc3c(C#C[Si](C(C)C)(C(C)C)C(C)C)c3cc4ccccc4cc23)cc1

absorption maximum (in CC#N): 384 nm
Structure (SMILES): CCOC(=O)c1c(C=Cc2ccccc2)oc(NC2CCCCC2)c1C(=O)OCC

absorption maximum (in CCO): 571 nm
absorption maximum (in O): 574 nm
Structure (SMILES): O=C([O-])c1ccc(C(=O)[O-])c(C2=c3cc4c5c(c3Oc3c2cc2c6c3CCCN6CCC2)CCC[N+]=5CCC4)c1

absorption maximum (in C1CCCCC1): 388 nm
Structure (SMILES): COc1ccc2c3c(c4ccc(OC)cc4c2c1)C(C)(C)c1ccccc1-3

absorption maximum (in ClCCl): 437 nm
Structure (SMILES): CCCCCCCCCCCCN1C(=O)c2c(c3ccc4cc(-c5ccc(-c6ccccc6)cc5)c(OC)cc4c3c3c2ccc2cc(-c4ccc(-c5ccccc5)cc4)c(OC)cc23)C1=O

absorption maximum (in C1CCOC1): 335 nm
Structure (SMILES): C(=C1c2ccccc2CCc2ccccc21)c1ccc(-c2ccc(C=C3c4ccccc4CCc4ccccc43)cc2)cc1

absorption maximum (in CC#N): 335 nm
absorption maximum (in CCO): 336 nm
absorption maximum (in ClCCl): 340 nm
Structure (SMILES): C[P+]1(c2ccccc2)c2ccccc2-c2sc3ccccc3c21 (stereo unspecified)

absorption maximum (in C1CCOC1): 341 nm
Structure (SMILES): c1ccc(-n2c3ccccc3c3cc(-c4ccn5nc(-c6ccc(-n7c8ccccc8c8ccccc87)cc6)nc5c4)ccc32)cc1

absorption maximum (in C1CCCCC1): 425.4 nm
absorption maximum (in CC1CCCCC1): 425.4 nm
absorption maximum (in CC#N): 454 nm and 447 nm
absorption maximum (in CCC(C)CC): 425 nm
absorption maximum (in CCCCCC): 425 nm
absorption maximum (in CCO): 460 nm
absorption maximum (in CCOC(C)=O): 439.4 nm
Structure (SMILES): CCN(CC)c1ccc2cc(-c3nc4ccccc4s3)c(=O)oc2c1

absorption maximum (in CCO): 330 nm
Structure (SMILES): CCOC(=O)c1cc(C(=O)OCC)c2cc(C)ccc2n1

absorption maximum (in ClC(Cl)Cl): 393 nm
Structure (SMILES): COc1ccc(N(c2ccc(OC)cc2)c2sc(-c3ccc(Cl)cc3)nc2-c2ccccc2)cc1

absorption maximum (in CC#N): 339 nm
Structure (SMILES): c1ccc(-n2c(-c3ccc(-n4c5ccccc5c5ccccc54)cc3)nc3nccnc32)cc1

absorption maximum (in ClCCl): 321 nm
Structure (SMILES): CCOC(=O)c1c(-c2c(Cl)c3ccccc3oc2=O)nn(-c2cccc(Cl)c2)c1C(=O)OCC

absorption maximum (in ClCCl): 336 nm
Structure (SMILES): CC(C)(C)NC(=O)c1ccc(-c2ccccc2)c2ccc3c4ccccc4c4ccccc4c3c12

absorption maximum (in CO): 782 nm
Structure (SMILES): CC1(C)C(/C=C/C2=C(Cl)C(=C/C=C3/N(CCCCCC(=O)O)c4ccccc4C3(C)C)/CCC2)=[N+](CCCCCC(=O)O)c2ccccc21

The next lines start with the compound.

Structure (SMILES): F[B-]1(F)Oc2ccccc2-c2cc(-n3c4ccc(-c5ccccc5)cc4c4cc(-c5ccccc5)ccc43)cc[n+]21
absorption maximum (in Cc1ccccc1): 374 nm

Structure (SMILES): COc1cc(-c2nc3c4cccnc4c4ncccc4c3[nH]2)c(OC)cc1/C=C/c1ccncc1
absorption maximum (in C1CCOC1): 394 nm
absorption maximum (in CC#N): 392 nm
absorption maximum (in CN(C)C=O): 396 nm
absorption maximum (in Cc1ccccc1): 395 nm

Structure (SMILES): CCn1c2ccccc2c2cc(-c3cc(-c4ccc5c(c4)c4ccccc4n5CC)nc(SC)n3)ccc21
absorption maximum (in C1CCOC1): 371 nm
absorption maximum (in CCOC(C)=O): 369 nm
absorption maximum (in CN(C)C=O): 374 nm
absorption maximum (in Cc1ccccc1): 370 nm
absorption maximum (in ClCCl): 370 nm

Structure (SMILES): CCN1CCN(c2ccc(/N=N/c3ccc(C#N)cc3)cc2)CC1
absorption maximum (in CCOC(C)=O): 428 nm

Structure (SMILES): N#CSC1=CC2=C(c3ccccc3)c3cc(SC#N)c(N4CCOCC4)n3[B-](F)(F)[N+]2=C1N1CCOCC1
absorption maximum (in CC#N): 588 nm
absorption maximum (in CCCCCC): 599 nm
absorption maximum (in CCOC(C)=O): 593 nm
absorption maximum (in CO): 585 nm
absorption maximum (in ClCCl): 596 nm

Structure (SMILES): CCC1=C(C)C2=C(C)c3cc(I)c(I)n3[B-](F)(F)[N+]2=C1C
absorption maximum (in C1CCCCC1): 532 nm
absorption maximum (in CC(C)=O): 515.5 nm
absorption maximum (in CCO): 520 nm
absorption maximum (in CCOC(C)=O): 518.5 nm
absorption maximum (in CO): 518 nm
absorption maximum (in OCC(F)(F)F): 511.5 nm

Structure (SMILES): c1ccc(-c2nc(-c3ccccc3)nc(-c3ccc(N4c5ccccc5C5(c6ccccc64)c4ccccc4N(c4ccc(-c6nc(-c7ccccc7)nc(-c7ccccc7)n6)cc4)c4ccccc45)cc3)n2)cc1
absorption maximum (in Cc1ccccc1): 400 nm

Structure (SMILES): CC(=O)c1c2c(c(C(C)=O)c3c1OC(CC(=O)O)O3)OCO2
absorption maximum (in CC#N): 433 nm

Structure (SMILES): CCN1c2ccc(/C=N/Nc3ccccn3)cc2Sc2cc(/C=N/Nc3ccccn3)ccc21
absorption maximum (in C1CCOC1): 392 nm
absorption maximum (in CS(C)=O): 398 nm
absorption maximum (in Cc1ccccc1): 392 nm
absorption maximum (in ClCCl): 393 nm

Structure (SMILES): COc1ccc2c(c1)c1ccccc1n2-c1nc2ccccc2nc1-n1c2ccccc2c2cc(OC)ccc21
absorption maximum (in Cc1ccccc1): 423 nm

Structure (SMILES): F[B-]1(F)n2cccc2C=C2C=CC=[N+]21
absorption maximum (in C1CCCCC1): 503.5 nm
absorption maximum (in CC(C)=O): 497.5 nm
absorption maximum (in CCCCCC): 502 nm
absorption maximum (in CCO): 498 nm
absorption maximum (in CCOC(C)=O): 498 nm
absorption maximum (in CO): 497 nm
absorption maximum (in ClCCl): 503 nm
absorption maximum (in OCC(F)(F)F): 497 nm

Structure (SMILES): CCOC(=O)c1cc(C(=O)OCC)c2ccc(O)cc2n1
absorption maximum (in CCO): 373 nm

Structure (SMILES): Cc1cccc(C)c1-c1cc2c(C)c3c4ccc5nc6c(ccc7c8c(C)c9cc(-c%10c(C)cccc%10C)c(-c%10c(C)cccc%10C)cc9c(C)c8c76)nc5c4c3c(C)c2cc1-c1c(C)cccc1C
absorption maximum (in ClC(Cl)Cl): 501 nm

Structure (SMILES): C(#Cc1cccs1)C(C#Cc1cccs1)=Cc1ccc(C=C(C#Cc2cccs2)C#Cc2cccs2)cc1
absorption maximum (in ClC(Cl)Cl): 438 nm

Structure (SMILES): Cc1ccccc1C
absorption maximum (in C1CCCCC1): 258.26 nm

Structure (SMILES): CCC1=C(C)C2=Cc3cscc3B(O)N2C1=O
absorption maximum (in CC#N): 350 nm
absorption maximum (in CCCCCC): 351 nm
absorption maximum (in CO): 355 nm
absorption maximum (in CS(C)=O): 352 nm
absorption maximum (in ClC(Cl)Cl): 355 nm

Structure (SMILES): O=C1c2cccc3c(NCc4ccccn4)c4ccccc4c(c23)C(=O)N1Cc1ccccn1
absorption maximum (in C1CCOC1): 520 nm
absorption maximum (in CCCCCC): 497 nm
absorption maximum (in CCO): 533 nm
absorption maximum (in Cc1ccccc1): 517 nm
absorption maximum (in ClCCl): 527 nm

Structure (SMILES): CC[N+]1(CC)CN2C(=N1)C(C(=O)O)=Cc1cc(Oc3ccccc3)ccc12
absorption maximum (in O): 387 nm

Structure (SMILES): c1ccc(-c2nc3ccccc3nc2-c2ccc(-n3c4ccccc4c4ccccc43)cc2)cc1
absorption maximum (in Cc1ccccc1): 345 nm

Structure (SMILES): CSC1=C(C)C2=C(c3ccc(C)cc3)c3c(C)c(Cl)c(C)n3[B-](F)(F)[N+]2=C1C
absorption maximum (in C1CCOC1): 518 nm

Structure (SMILES): CCCCN(CCCC)c1ccc2c#cc3cc4c#cc5ccc(C(F)(F)F)cc5c#cc#cc5cc(C(F)(F)F)ccc5c#cc4cc3c#cc3ccc(N(CCCC)CCCC)cc3c#cc#cc2c1
absorption maximum (in ClCCl): 450 nm

Structure (SMILES): Cc1ccc(N(C)C)cc1C1=C2C=CC(=[N+](C)C)C=C2[Si](C)(C)c2cc(N(C)C)ccc21
absorption maximum (in O): 646 nm

Structure (SMILES): COc1cc2c3c(c4cc(OC)c(OC)c(OC)c4c2c(OC)c1OC)=[N+]1C(=C(c2c(C)cc(C)cc2C)c2cc4c5cc(OC)c(OC)c(OC)c5c5c(OC)c(OC)c(OC)cc5c4n2[B-]1(F)F)C=3
absorption maximum (in C1CCCCC1): 733 nm
absorption maximum (in C1CCOC1): 730 nm
absorption maximum (in CC#N): 718 nm
absorption maximum (in Cc1ccccc1): 740 nm
absorption maximum (in ClCCl): 727 nm

Structure (SMILES): COc1cc(/C=C/c2nc(N3CCOCC3)c3c([n+]2[O-])CCCC3)cc(OC)c1OC
absorption maximum (in ClCCl): 390 nm

Structure (SMILES): O=C(N/N=C/c1ccccc1O)c1ccccc1
absorption maximum (in C1CCOC1): 334 nm
absorption maximum (in CC#N): 333 nm
absorption maximum (in CC(C)=O): 415 nm
absorption maximum (in CCO): 400 nm
absorption maximum (in CN(C)C=O): 397 nm
absorption maximum (in CS(C)=O): 329 nm
absorption maximum (in ClCCl): 330 nm
